Test results taken from ChEMBL document CHEMBL1155795, “Revisiting the sponge sources, stereostructure, and biological activity of cyclocinamide a” (J Nat Prod, 2008).
Starred links: 1 amine or outer side, 2 acyl side, 3 side chain; linkers in the order of their positions; H or OH if unused. Positions of bridges follow the written chain, without caps; N, C: chain ends. Non-standard residues stand in square brackets, D forms with d. Residues, ends and D or L forms follow the SMILES beside them. *: point of attachment. Trp(5-Br) = N[C@@H](Cc1c[nH]c2ccc(Br)cc12)C(=O)O; isoSer(2S) = O=C([C@@H](O)CN[*:1])[*:2]; X1 = Cn1cc(Cl)cc1C(=O)*; Dap = NC[C@H](N)C(=O)O

Legend:
HCT-116 = experiment: Cytotoxicity against human HCT116 cells; format: functional, cell-based
[1] = Cytotoxicity against human […] cells assessed as zone of inhibition at 90 ug/disk by disk diffusion soft agar colony forming assay; format: functional; conditions: read-out: IZ
[2] = Cytotoxicity against mouse CFU-GM cells assessed as zone of inhibition at 90 ug/disk by disk diffusion soft agar colony forming assay; format: functional; conditions: read-out: IZ

Cn1cc(Cl)cc1C(=O)NCC(=O)N[C@H]1CNC(=O)[C@H](Cc2c[nH]c3ccc(Br)cc23)NC(=O)[C@@H](O)CNC(=O)[C@H](CC(N)=O)NC1=O (X1-G[Dap]N[isoSer(2S)][Trp(5-Br)]; lactam 2-C)
IC50 (HCT-116): > 10 µg/mL
zone of inhibition at 90 µg/disc [1]: 26 mm
zone of inhibition at 90 µg/disc [2]: 16 mm
